According to patent US7517654B2, “Peptide and a derivative thereof promoting cell adhesion and spreading” (Seoul National University Industry Foundation, priority 2004, dated 2009):

Key:
NHEK = assay: Cell proliferation on coated plates, viable cell count by trypan blue exclusion; type: cell-based, human; settings: peptide P4 20 μg/12-well plate; 1-4 days; compared with PS-coated plate
Protocol: Normal human epidermal keratinocytes (NHEK) tissue samples were prepared from foreskin tissue of healthy 1- to 3-year-old people. The tissue samples were washed three times with calcium- and magnesium-free Hanks balanced salt solution containing 3× antibiotics (CMF-HBSS; GibcoBRL), and added with CMF-HBSS containing collgenase (collgenase type II, 1.0 mg/ml; sigma Chemical Co.) and dispase (dispase grade II, 2.4 mg/ml; Boeringer-Mannheim) to isolate epithelial layer from epidermal tissue, and then, cultured in 95% air and 5% CO2 at 37° C. for 90 min. NHEKs were prepared from the isolated epidermal tissue, and cultured in epithelial cell medium containing 0.15 mM calcium and growth factor bullet kit (KGM; Clonetics Corp.). When cell density was about 70%, NHEKs were divided into 1×10^5 cells per 60-mm petri dish and cultured until cell density reached about 70%. NHEKs were subcultured two times the same way as the above and used.
(§1) Polystyrene (PS), BSA (bovine serum albumin) and synthetic peptide P4 were coated on […]. NHEK (PD 13.0; 2×10^4 cells/12-well plate) and NHEF (passage number 4) cultures were added to the 12-well plate coated with the polystyrene (PS), BSA (1%) and synthetic peptide P4 (20 μg/12-well plate), and cultured for 1, 2, 3, or 4 days. Viable cells were counted by trypan blue exclusion in a hemocytometer. Data are expressed as mean ±SD (n=4).

NHEF = assay: as above; type: cell-based, human; settings: peptide P4 20 μg/12-well plate; 1-4 days; compared with PS-coated plate
Text: Normal human […] (NHEF) were taken from foreskin tissue of healthy 1- to 3-year-old people, and washed three times with calcium- and magnesium-free Hanks balanced salt solution containing 3× antibiotics (CMF-HBSS; GibcoBRL), and prepared by explant culture. When cell density was about 80%, NHEFs were divided by the ratio of 1:3 and cultured until cell density reached about 80%. […] were subcultured 4 times the same way as the above and used.
as §1

## PPFLMLLKGSTR [peptide P4]
NHEK
  increase in the number of NHEKs according to cell proliferation: increased more than that on PS-coated plate
NHEF
  increase in the number of NHEFs according to cell proliferation: similar
